Experimental findings from patent US10231954B2, “Neurodegenerative therapies” (LYTIX BIOPHARMA AS, priority 2014, dated 2019) are described below.

Common to all, as to format: biochemical
One test has as its target PAK2 (Homo sapiens, UniProt Q13177). Briefly: Kinase profiling PAK2. The conditions noted are these: for remaining activity at 100 µM: read-out: residual kinase activity, PAK2. An excerpt: (§1) Any value less that 25 is considered to be highly significant inhibition.
The target in a further test is T1, IKKe (Homo sapiens, UniProt Q14164).
T1 sequence (Q14164 1-716): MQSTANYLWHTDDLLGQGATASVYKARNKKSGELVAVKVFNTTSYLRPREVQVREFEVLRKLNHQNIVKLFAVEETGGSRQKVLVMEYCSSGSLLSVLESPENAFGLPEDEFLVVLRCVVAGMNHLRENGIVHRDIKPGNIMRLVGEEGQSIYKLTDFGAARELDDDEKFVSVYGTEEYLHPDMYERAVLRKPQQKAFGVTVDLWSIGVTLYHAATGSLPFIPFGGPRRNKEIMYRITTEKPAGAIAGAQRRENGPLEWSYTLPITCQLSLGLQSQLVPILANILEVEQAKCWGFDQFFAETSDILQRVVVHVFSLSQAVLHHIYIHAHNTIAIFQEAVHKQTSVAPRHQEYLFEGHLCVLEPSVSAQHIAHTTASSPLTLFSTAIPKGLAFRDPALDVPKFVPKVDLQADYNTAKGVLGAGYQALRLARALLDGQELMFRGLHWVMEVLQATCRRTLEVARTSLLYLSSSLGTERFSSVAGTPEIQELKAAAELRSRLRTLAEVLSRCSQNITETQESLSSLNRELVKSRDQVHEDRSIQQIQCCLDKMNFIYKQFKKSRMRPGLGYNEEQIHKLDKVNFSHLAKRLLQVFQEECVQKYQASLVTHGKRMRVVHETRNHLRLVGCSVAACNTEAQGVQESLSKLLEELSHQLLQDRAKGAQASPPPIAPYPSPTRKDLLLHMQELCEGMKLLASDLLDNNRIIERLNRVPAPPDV
Briefly: Kinase profiling IKKe. The note with it: for remaining activity at 100 µM: read-out: residual kinase activity, IKKe.
Text: as §1

In a further test the target is T2, ZAP70 (Homo sapiens, UniProt P43403).
T2 sequence (P43403 1-619): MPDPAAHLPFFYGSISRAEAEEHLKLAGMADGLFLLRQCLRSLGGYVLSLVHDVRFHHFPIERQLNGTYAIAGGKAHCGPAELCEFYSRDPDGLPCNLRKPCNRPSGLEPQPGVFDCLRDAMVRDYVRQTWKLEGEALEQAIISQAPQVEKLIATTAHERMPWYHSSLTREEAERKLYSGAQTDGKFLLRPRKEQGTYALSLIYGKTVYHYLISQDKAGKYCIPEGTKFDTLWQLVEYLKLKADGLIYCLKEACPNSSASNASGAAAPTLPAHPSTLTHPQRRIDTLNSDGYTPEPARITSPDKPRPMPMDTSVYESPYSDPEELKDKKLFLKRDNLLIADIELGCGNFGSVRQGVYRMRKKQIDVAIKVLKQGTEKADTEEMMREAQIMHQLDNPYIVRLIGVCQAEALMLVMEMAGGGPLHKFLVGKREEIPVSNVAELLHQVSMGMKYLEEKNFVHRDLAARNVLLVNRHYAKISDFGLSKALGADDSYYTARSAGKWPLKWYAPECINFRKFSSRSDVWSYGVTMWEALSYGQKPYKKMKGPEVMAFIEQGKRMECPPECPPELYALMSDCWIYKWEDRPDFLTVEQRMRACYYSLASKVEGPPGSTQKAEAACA
Briefly: Kinase profiling ZAP70. The note with it: for remaining activity at 100 µM: read-out: residual kinase activity, ZAP70.
Text: as §1

For the next test, the target named is T3, TAO1 (Homo sapiens, UniProt Q7L7X3).
T3 sequence (Q7L7X3 1-1001): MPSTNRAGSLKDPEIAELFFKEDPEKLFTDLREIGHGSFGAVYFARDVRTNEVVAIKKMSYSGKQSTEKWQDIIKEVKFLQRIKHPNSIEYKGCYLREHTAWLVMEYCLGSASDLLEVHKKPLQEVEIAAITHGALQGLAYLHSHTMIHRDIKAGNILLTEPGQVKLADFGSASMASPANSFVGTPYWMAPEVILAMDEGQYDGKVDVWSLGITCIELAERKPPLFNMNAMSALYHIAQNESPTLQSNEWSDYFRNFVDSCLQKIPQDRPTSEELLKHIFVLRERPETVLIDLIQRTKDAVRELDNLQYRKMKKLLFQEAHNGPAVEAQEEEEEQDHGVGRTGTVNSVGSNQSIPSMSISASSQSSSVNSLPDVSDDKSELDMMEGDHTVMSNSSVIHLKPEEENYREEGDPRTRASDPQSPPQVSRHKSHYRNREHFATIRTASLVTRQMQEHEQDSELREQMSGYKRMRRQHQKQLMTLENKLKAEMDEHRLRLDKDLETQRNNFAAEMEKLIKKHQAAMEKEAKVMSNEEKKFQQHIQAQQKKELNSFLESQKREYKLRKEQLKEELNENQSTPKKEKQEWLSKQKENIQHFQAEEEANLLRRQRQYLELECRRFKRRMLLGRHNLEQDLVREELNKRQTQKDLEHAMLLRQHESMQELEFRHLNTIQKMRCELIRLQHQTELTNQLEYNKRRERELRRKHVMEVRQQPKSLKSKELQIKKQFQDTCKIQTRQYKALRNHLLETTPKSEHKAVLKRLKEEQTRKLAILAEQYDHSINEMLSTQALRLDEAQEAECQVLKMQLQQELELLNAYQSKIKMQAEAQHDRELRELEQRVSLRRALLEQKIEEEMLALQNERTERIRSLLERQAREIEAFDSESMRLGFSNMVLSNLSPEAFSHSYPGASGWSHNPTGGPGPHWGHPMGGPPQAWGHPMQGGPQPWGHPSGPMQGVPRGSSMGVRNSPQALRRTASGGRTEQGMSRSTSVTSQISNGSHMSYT
Briefly: Kinase profiling TAO1. The note with it: for remaining activity at 100 µM: read-out: residual kinase activity, TAO1.
Text: as §1

The target in a further test is FGF-R1 (Homo sapiens, UniProt P11362). In words: Kinase profiling FGF-R1. The conditions noted are these: for remaining activity at 100 µM: read-out: residual kinase activity, FGF-R1.
Chain of FGF-R1 (P11362 22-822, species assumed): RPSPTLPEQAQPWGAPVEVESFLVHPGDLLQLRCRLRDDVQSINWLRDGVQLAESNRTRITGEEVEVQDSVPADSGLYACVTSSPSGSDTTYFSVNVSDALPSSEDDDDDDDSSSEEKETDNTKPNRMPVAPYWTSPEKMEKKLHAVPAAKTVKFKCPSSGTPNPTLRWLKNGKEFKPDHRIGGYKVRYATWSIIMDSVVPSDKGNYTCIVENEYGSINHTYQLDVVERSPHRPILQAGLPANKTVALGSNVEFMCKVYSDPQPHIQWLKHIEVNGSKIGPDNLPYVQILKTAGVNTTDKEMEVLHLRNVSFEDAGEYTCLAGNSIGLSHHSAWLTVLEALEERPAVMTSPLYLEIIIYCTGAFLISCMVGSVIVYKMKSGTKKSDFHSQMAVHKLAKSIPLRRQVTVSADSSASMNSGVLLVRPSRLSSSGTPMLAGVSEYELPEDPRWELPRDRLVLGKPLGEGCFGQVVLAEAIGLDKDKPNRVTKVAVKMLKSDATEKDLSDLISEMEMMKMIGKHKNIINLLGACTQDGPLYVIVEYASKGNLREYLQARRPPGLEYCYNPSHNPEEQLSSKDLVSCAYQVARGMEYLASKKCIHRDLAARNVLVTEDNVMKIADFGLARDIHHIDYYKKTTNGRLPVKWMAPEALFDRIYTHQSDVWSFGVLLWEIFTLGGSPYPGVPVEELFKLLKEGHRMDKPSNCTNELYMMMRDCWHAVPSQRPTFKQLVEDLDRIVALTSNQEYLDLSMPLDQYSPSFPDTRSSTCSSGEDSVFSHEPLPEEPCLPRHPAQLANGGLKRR
Text: as §1

Another test addresses TTBK1 (Homo sapiens, UniProt Q5TCY1). Briefly: Kinase profiling TTBK1. The conditions noted are these: for remaining activity at 100 µM: read-out: residual kinase activity, TTBK1.
Text: as §1

Setting [1] is: 100 micromolar inhibitor concentration, 100 is no change.
[2] abbreviates: 100 micromolar inhibitor, 100 = no change.

Like-named read-outs stand apart in the source and are kept apart here.

Chain of TTBK1 (Q5TCY1 whole entry, species assumed): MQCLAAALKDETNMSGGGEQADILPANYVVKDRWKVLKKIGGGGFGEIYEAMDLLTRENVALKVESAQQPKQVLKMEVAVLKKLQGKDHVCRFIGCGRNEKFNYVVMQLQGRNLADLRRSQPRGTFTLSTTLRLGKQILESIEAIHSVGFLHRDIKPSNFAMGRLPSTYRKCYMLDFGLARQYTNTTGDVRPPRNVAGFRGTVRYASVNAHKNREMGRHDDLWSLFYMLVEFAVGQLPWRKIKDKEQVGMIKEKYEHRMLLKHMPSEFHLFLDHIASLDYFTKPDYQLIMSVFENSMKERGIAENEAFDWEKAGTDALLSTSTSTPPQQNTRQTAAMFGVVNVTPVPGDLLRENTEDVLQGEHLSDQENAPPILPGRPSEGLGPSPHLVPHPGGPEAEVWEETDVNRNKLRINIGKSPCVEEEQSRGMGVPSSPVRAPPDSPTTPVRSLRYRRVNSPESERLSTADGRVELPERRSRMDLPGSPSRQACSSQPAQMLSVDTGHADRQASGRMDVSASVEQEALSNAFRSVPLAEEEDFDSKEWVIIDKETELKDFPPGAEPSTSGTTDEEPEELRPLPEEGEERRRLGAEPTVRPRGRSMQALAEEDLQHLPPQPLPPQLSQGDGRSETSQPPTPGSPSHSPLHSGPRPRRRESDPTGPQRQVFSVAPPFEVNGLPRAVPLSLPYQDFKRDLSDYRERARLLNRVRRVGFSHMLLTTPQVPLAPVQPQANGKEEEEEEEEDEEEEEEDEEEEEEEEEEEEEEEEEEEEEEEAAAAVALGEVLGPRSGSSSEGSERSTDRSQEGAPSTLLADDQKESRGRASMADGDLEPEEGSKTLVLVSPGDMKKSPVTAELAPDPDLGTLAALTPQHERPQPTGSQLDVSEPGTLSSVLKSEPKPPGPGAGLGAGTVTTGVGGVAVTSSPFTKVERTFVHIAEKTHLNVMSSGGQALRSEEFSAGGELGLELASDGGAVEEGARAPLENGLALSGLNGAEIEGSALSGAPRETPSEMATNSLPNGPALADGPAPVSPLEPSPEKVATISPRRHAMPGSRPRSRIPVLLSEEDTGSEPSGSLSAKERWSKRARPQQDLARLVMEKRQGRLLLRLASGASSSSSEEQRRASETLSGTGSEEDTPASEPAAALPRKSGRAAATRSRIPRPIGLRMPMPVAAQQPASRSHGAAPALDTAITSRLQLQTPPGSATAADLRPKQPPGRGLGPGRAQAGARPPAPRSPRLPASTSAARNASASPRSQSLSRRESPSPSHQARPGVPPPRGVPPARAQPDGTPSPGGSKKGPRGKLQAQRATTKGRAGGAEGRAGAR
Chain of PAK2 (Q13177 whole entry, species assumed): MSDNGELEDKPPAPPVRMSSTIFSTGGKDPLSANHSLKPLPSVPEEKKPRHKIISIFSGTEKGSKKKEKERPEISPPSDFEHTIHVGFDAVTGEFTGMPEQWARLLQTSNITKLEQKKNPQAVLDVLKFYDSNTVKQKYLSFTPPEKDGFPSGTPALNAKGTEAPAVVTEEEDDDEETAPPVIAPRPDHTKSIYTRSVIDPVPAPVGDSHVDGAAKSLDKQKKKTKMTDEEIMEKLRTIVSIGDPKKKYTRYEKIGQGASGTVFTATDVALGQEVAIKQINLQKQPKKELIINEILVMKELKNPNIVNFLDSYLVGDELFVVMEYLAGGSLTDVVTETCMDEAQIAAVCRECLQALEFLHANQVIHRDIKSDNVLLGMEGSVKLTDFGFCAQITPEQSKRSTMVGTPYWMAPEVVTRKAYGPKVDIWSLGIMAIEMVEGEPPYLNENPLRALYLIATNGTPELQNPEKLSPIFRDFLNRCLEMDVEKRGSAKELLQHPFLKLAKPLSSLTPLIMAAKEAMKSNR

As for `CC(=O)Nc1nc2cc(O)ccc2s1` [Compound 01-66, N-(5-hydroxybenzo[d]thiazol-2-yl)acetamide], the remaining activity at 100 µM on PAK2 was 93%; at IKKe, 68%; on ZAP70 it was 113%; at TAO1 it was 30%; on FGF-R1, 67%; at TTBK1 it was 68%.
With `CC(=O)Nc1nc2ccc(O)cc2s1` [Compound 01-71], the remaining activity at 100 µM came out at 102% on PAK2 (setting [1]); 58% on IKKe (setting [1]); 126% at ZAP70 (setting [1]); 29% on TAO1 (setting [1]); 42% on FGF-R1 (setting [1]); 61% at TTBK1 (setting [1]).
For the molecule `CC(=O)Nc1nc2ccc(C(F)(F)F)cc2s1` [Compound 01-90], the remaining activity at 100 µM at PAK2 (setting [1]) is 103%; on IKKe (setting [1]), 81%; at ZAP70 (setting [1]) it was 122%; on TAO1 (setting [1]), 71%; at FGF-R1 (setting [1]), 40%; on TTBK1 (setting [1]), 88%.
Take `CC(=O)Nc1nc2ccc(C#N)cc2s1` [Compound 01-94]: the remaining activity at 100 µM on PAK2 (setting [1]) was determined as 101%; on IKKe (setting [1]), 64%; on ZAP70 (setting [1]) it was 118%; on TAO1 (setting [1]) it was 46%; at FGF-R1 (setting [1]) it was 51%; on TTBK1 (setting [1]), 73%.
For `CC(=O)Nc1cccc(NC(=O)c2nc3ccc(O)cc3s2)c1` [Compound 03-07, N-(3-acetamidophenyl)-6-hydroxybenzo[d]thiazole-2-carboxamide], the remaining activity at 100 µM stood at 90% at PAK2 (setting [2]); 73% at IKKe (setting [2]); 94% on ZAP70 (setting [2]); 84% on TAO1 (setting [2]); 66% on FGF-R1 (setting [2]); 93% on TTBK1 (setting [2]).
For `O=C(Nc1nc2cc(O)ccc2s1)c1ccncc1` [Compound 03-11], on PAK2 (setting [1]), the “residual kinase activity, PAK2” value is recorded as 88. Also, the “residual kinase activity, IKKe” value on IKKe (setting [1]) turned out to be 69. The “residual kinase activity, ZAP70” value at ZAP70 (setting [1]) is reported as 89. Further, at TAO1 (setting [1]), the “residual kinase activity, TAO1” value is recorded as 77. Further, the “residual kinase activity, FGF-R1” value at FGF-R1 (setting [1]) came to 74. Besides, on TTBK1 (setting [1]), the “residual kinase activity, TTBK1” value came to 99.
As for `O=C(Nc1nc2ccc(O)cc2s1)c1ccccn1` [Compound 03-12], the “residual kinase activity, PAK2” value at PAK2 (setting [1]) came to 104. Besides, the “residual kinase activity, IKKe” value on IKKe (setting [1]) came to 78. Further, the “residual kinase activity, ZAP70” value at ZAP70 (setting [1]) stood at 91. Further, the “residual kinase activity, TAO1” value at TAO1 (setting [1]) is given as 74. Also, on FGF-R1 (setting [1]), the “residual kinase activity, FGF-R1” value is 16. For the same molecule, the “residual kinase activity, TTBK1” value on TTBK1 (setting [1]) amounted to 91.
On to `O=C(Nc1nc2cc(O)ccc2s1)c1ccccn1` [Compound 03-13], for which, at PAK2 (setting [1]), the “residual kinase activity, PAK2” value is recorded as 119. Besides, the “residual kinase activity, IKKe” value at IKKe (setting [1]) is on record as 63. On ZAP70 (setting [1]), the “residual kinase activity, ZAP70” value is given as 105. Besides, the “residual kinase activity, TAO1” value at TAO1 (setting [1]) came to 80. The “residual kinase activity, FGF-R1” value on FGF-R1 (setting [1]) is 81. The “residual kinase activity, TTBK1” value on TTBK1 (setting [1]) is given as 100.
As for `COc1ccc2sc(NC(C)=O)nc2c1` [Compound 03-21], the remaining activity at 100 µM at PAK2 (setting [1]) is 95%; at IKKe (setting [1]), 91%; at ZAP70 (setting [1]) it was 98%; at TAO1 (setting [1]), 72%; on FGF-R1 (setting [1]), 104%; at TTBK1 (setting [1]), 93%.
Turning to `CC(=O)Nc1nc2ccccc2s1` [Compound 03-32], the “residual kinase activity, PAK2” value at PAK2 (setting [1]) is given as 90. The “residual kinase activity, IKKe” value at IKKe (setting [1]) is 109. Further, the “residual kinase activity, ZAP70” value on ZAP70 (setting [1]) is 111. Moreover, on TAO1 (setting [1]), the “residual kinase activity, TAO1” value amounted to 73. In addition, the “residual kinase activity, FGF-R1” value on FGF-R1 (setting [1]) was 12. In addition, the “residual kinase activity, TTBK1” value at TTBK1 (setting [1]) turned out to be 80.
Take `O=C(Nc1nc2cc(O)ccc2s1)c1cccnc1` [Compound 03-33]: on PAK2 (setting [1]), the “residual kinase activity, PAK2” value was determined as 114. Also, the “residual kinase activity, IKKe” value on IKKe (setting [1]) came to 81. The “residual kinase activity, ZAP70” value at ZAP70 (setting [1]) was 110. Besides, the “residual kinase activity, TAO1” value at TAO1 (setting [1]) was 87. For the same molecule, the “residual kinase activity, FGF-R1” value on FGF-R1 (setting [1]) came out at 102. Further, the “residual kinase activity, TTBK1” value at TTBK1 (setting [1]) was found to be 89.
Consider `O=C(Nc1nc2ccc(O)cc2s1)c1ccccc1` [Compound 03-60], for which the “residual kinase activity, PAK2” value at PAK2 (setting [1]) turned out to be 94. Also, the “residual kinase activity, IKKe” value on IKKe (setting [1]) is 27. In addition, the “residual kinase activity, ZAP70” value on ZAP70 (setting [1]) is on record as 109. Besides, the “residual kinase activity, TAO1” value on TAO1 (setting [1]) is recorded as 62. Moreover, the “residual kinase activity, FGF-R1” value at FGF-R1 (setting [1]) came out at 84. The “residual kinase activity, TTBK1” value at TTBK1 (setting [1]) turned out to be 46.
For the molecule `CC(=O)Nc1nc2cc(C(F)(F)F)ccc2s1` [Compound 03-73], the remaining activity at 100 µM stood at 85% at PAK2 (setting [1]); 93% at IKKe (setting [1]); 115% on ZAP70 (setting [1]); 88% at TAO1 (setting [1]); 109% on FGF-R1 (setting [1]); 94% on TTBK1 (setting [1]).
With `CC(=O)Nc1nc2cc(C)ccc2s1` [Compound 03-76], the “residual kinase activity, PAK2” value on PAK2 (setting [1]) amounted to 102. On IKKe (setting [1]), the “residual kinase activity, IKKe” value is on record as 89. Further, the “residual kinase activity, ZAP70” value on ZAP70 (setting [1]) was determined as 110. For the same molecule, on TAO1 (setting [1]), the “residual kinase activity, TAO1” value is 76. The “residual kinase activity, FGF-R1” value on FGF-R1 (setting [1]) stood at 106. Also, the “residual kinase activity, TTBK1” value at TTBK1 (setting [1]) was found to be 84.
